Where “and” joins values, the source holds several entries; their conditions need not be identical. Equal values may be shown once. Read-outs that look alike come from different tables or passages of the source.
Columns and labels:
[1] = not given; remark: listed apart in the source

SMILES: O=C1NC[C@H](O)COc2ccc(F)cc2[C@H]2C[C@@H](O)CN2c2ccn3ncc1c3n2
- ring closure, isolated yield (from O=C(NC[C@H](O)CCl)c1cnn2ccc(N3CC(O)C[C@@H]3c3cc(F)ccc3O)nc12, ether bond, 14-membered ring, Cs2CO3, DMF, 21.6 mM, 85.0 °C, 0.5 h): 16.2%

SMILES: O=C1NCCCn2cc(F)cc(c2=O)[C@H]2CCCN2c2ccn3ncc1c3n2
- ring closure, yield of all isomers ([1]; from NCCCn1cc(F)cc([C@H]2CCCN2c2ccn3ncc(C(=O)O)c3n2)c1=O, amide bond, EDCI/HOBt, DCM, 26.4 mM, 25.0 °C, 6.0 h): 39%

SMILES: O=C1NC[C@H](O)Cn2cc(F)cc(c2=O)[C@H]2CCCN2c2ccn3ncc1c3n2
- ring closure, yield of all isomers ([1]; from O=C(NC[C@H](O)CCl)c1cnn2ccc(N3CCC[C@@H]3c3cc(F)c[nH]c3=O)nc12, amine bond, Cs2CO3, DMF, […], 85.0 °C, 2.0 h): 12%

SMILES: O=C1NCCCCn2cc(F)cc(c2=O)[C@H]2CCCN2c2ccn3ncc1c3n2
- ring closure, isolated yield (other bond, 15-membered ring): 6%

SMILES: O=C1NCCCc2ncc(F)cc2[C@H]2CCCN2c2ccn3ncc1c3n2
- ring closure, isolated yield (from NCCCc1ncc(F)cc1[C@H]1CCCN1c1ccn2ncc(C(=O)O)c2n1, amide bond, 13-membered ring, HATU/DIEA, DMF, 8.4 mM, 3.0 h): 39%

SMILES: O=C1Nc2ncccc2COc2ncc(F)cc2[C@H]2CCCN2c2ccn3ncc1c3n2
- ring closure, isolated yield (from O=C(Nc1ncccc1CCl)c1cnn2ccc(N3CCC[C@@H]3c3cc(F)cnc3O)nc12, ether bond, 14-membered ring, Cs2CO3, DMF, 84.8 mM, 60.0 °C, 4.0 h, with chain assembly): 2.2%

SMILES: O=C1NC[C@H](O)COc2ccc(F)cc2C2CC(F)(F)CN2c2ccn3ncc1c3n2 (stereo partly shown)
- ring closure, isolated yield (from O=C(NC[C@H](O)CCl)c1cnn2ccc(N3CC(F)(F)CC3c3cc(F)ccc3O)nc12, ether bond, 14-membered ring, Cs2CO3, DMF, 20.0 mM, 85.0 °C, 0.5 h): 20% and 24%

SMILES: O=C1OCCOc2ncc(F)cc2[C@H]2CCCN2c2ccn3ncc1c3n2
- ring closure, yield of all isomers ([1]; from O=C(OCCCl)c1cnn2ccc(N3CCC[C@@H]3c3cc(F)c[nH]c3=O)nc12, ether bond, Cs2CO3, DMF, 22.2 mM, 90.0 °C, 16.0 h): 22%

SMILES: COC(=O)c1cnn2ccc(N3CCC[C@@H]3c3cc(F)cnc3CCC(C)(C)NC(=O)OC(C)(C)C)nc12
- ring closure, isolated yield (the molecule shown is the open-chain precursor, amide bond, 13-membered ring, EDCI/HOBt/TEA, DMF, 39.4 mM, 45.0 °C, 3 steps): 48.3%

SMILES: O=C1NCCCOc2ncc(F)cc2[C@H]2CCCN2c2ccn3ncc1c3n2
- ring closure, isolated yield (from O=C(NCCCCl)c1cnn2ccc(N3CCC[C@@H]3c3cc(F)cnc3O)nc12, ether bond, 14-membered ring, Cs2CO3, DMF, […], 85.0 °C, 16.0 h): 44%

SMILES: O=C1NCCCOc2ccc(F)cc2[C@H]2CCCN2c2ccn3ncc1c3n2
- ring closure, isolated yield (from CCOC(=O)c1cnn2ccc(N3CCC[C@@H]3c3cc(F)ccc3OCCCN)nc12, amide bond, 14-membered ring, DIEA, EtOH, 230.0 mM, 200.0 °C, 16.0 h): 50%

SMILES: NCCCOc1ccc(F)cc1[C@H]1CCCN1c1ccn2ncc(CO)c2n1
- ring closure, isolated yield (the molecule shown is the open-chain precursor, amine bond, 14-membered ring, PS-PPh3/CCl4, DCM, 26.0 mM, 25.0 °C): 57.5%

SMILES: Fc1ccc2c(c1)[C@H]1CCCN1c1ccn3ncc(c3n1)CNCCO2
- ring closure, isolated yield (from NCCOc1ccc(F)cc1[C@H]1CCCN1c1ccn2ncc(C=O)c2n1, amine bond, 13-membered ring, Me4NBH(OAc)3, DCM, 8.4 mM, 25.0 °C, 16.0 h): 21.6%
